Target: T1, 5-hydroxytryptamine receptor 3A (Rattus norvegicus, UniProt P35563)
T1 sequence (P35563 whole entry): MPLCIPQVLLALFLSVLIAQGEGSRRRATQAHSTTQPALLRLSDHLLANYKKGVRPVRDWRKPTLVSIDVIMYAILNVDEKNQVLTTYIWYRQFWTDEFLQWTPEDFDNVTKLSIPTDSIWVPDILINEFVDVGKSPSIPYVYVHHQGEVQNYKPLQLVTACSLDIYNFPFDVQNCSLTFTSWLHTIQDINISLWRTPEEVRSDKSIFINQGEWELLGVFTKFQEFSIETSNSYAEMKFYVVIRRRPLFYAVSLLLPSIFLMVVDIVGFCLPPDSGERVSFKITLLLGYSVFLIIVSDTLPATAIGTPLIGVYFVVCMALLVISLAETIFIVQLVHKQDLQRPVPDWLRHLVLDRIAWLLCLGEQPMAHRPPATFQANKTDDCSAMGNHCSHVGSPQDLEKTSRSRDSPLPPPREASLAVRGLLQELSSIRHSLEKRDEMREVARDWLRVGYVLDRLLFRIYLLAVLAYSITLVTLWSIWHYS

- Ki: 2.8 nM
SMILES: CN1C2CCC1CC(OC(=O)c1c[nH]c3ccccc13)C2 (stereo unspecified)
